The series is classed as physicochemical. The text has this: The reaction product obtained by processes such as the above, contains about 70 to 80% by weight isosorbide and 20 to 30% undesired reaction byproducts. The reaction product thus needs to be subjected to one or more separation steps, such as evaporation, distillation or chromatographic separation, to isolate the isosorbide. Chromatographic separation is disclosed in U.S. Patent Application No. 60/246038 (filed 6, Nov. 2000). Separation by vaporization or distillation is difficult because of the low vapor pressure of isosorbide. […] Evaporation or distillation at temperatures not much higher than about 140° C. is desirable to-minimize product degradation and obtain good purity isosorbide, but the recovery is poor. At higher temperatures, e.g., 170° C., more isosorbide is recovered, but it is of poorer quality.
The sorbitans, dimers, and polymer byproducts are all considerably higher boiling than isosorbide. For example, the vapor pressure of the sorbitans is only about 0.04 mm Hg at 140° C., about one-fiftieth that of isosorbide. The dimers are even less volatile, and the polymers are practically nonvolatile. Therefore, the water vapor volatilizes most of the dianhydro sugar alcohols but not such high boiling byproducts. […]

In turn, `O[C@@H]1CO[C@H]2[C@@H]1OC[C@@H]2O` [isosorbide, 1,4:3,6-dianhydrosorbitol] registered a vapor pressure of 1.75 mm Hg.

The values above are taken from patent publication US6864378B2, “Integrated continuous process for anhydro sugar alcohol manufacture” (E. I. du Pont de Nemours and Company, priority 2002, dated 2005).
